Test system: RSV infection
Assay: not given
Conditions: intramuscularly 15 mg/kg once a month for the RSV season, selected infants; cited from earlier work

Molecule | reduction of hospitalization rate caused by RSV infection
palivizumab: a humanized monoclonal antibody against RSV fusion (F) protein approved for prophylaxis in high-risk infants | 45-55%

Test system: RSV Long strain
Assay: Viral Cytopathic Effect (CPE) Assay
Assay type: cell-based
Conditions: human respiratory syncytial virus, 144 h, cell viability after 6 days (Cell Counting kit-8)
Description: EC50: the concentration of a compound where 50% of its maximal protection effect against viral induced CPE is observed
LongStrain: an A subtype RSV strain obtained from ATCC with catalog number VR-26
To measure anti-RSV activity of compounds, 96-well plates are seeded with 6×10^3 cells per well in Dulbecco's modified Eagle's medium (DMEM) containing 10% fetal bovine serum (FBS). Cells are infected the next day with sufficient RSV Long strain (ATCC) to produce an approximately 80-90% cytopathic effect after 6 days, in the presence of serial half-log diluted compound in a total volume of 200 μL per well. The viability of cells is assessed after 6 days using Cell Counting kit-8 (Dojindo Molecular Technologies). The absorbance at 450 nm and referenced at 630 nm is measured to determine 50% effective concentration (EC50).

Molecule | EC50
N#Cc1ccc(-n2c(CN3C(=O)C4(CC4)c4ccncc43)nc3cc(Cl)ccc32)cn1 [Example 1, 5-{5-Chloro-2-[(2′-oxospiro[cyclopropane-1,3′-pyrrolo[2,3-c]pyridin]-1′(2′H)-yl)methyl]-1H-benzimidazol-1-yl}pyridine-2-carbonitrile] | 0.7 nM
CS(=O)(=O)c1cc(-n2c(CN3C(=O)C4(CC4)c4ccncc43)nc3cc(Cl)ccc32)ccn1 [Example 2-1, 1′-({5-Chloro-1-[2-(methylsulfonyl)pyridin-4-yl]-1H-benzimidazol-2-yl}methyl)spiro[cyclopropane-1,3′-pyrrolo[2,3-c]pyridin]-2′(1′H)-one] | 65 nM
O=C(O)c1cccc(-n2c(CN3C(=O)C4(CC4)c4ccncc43)nc3cc(Cl)ccc32)c1 [Example 6-2, 3-{5-Chloro-2-[(2′-oxospiro[cyclopropane-1,3′-pyrrolo[2,3-c]pyridin]-1′(2′H)-yl)methyl]-1H-benzimidazol-1-yl}benzoic acid] | 512 nM
COC(=O)c1cccc(-n2c(CN3C(=O)C4(CC4)c4ccncc43)nc3cc(Cl)ccc32)c1 [Example 4-6, Methyl 3-{5-chloro-2-[(2′-oxospiro[cyclopropane-1,3′-pyrrolo[2,3-c]pyridin]-1′(2′H)-yl)methyl]-1H-benzimidazol-1-yl}benzoate] | 16 nM
CS(=O)(=O)c1cncc(-n2c(CN3C(=O)C4(CC4)c4ccncc43)nc3cc(Cl)ccc32)c1 [Example 5-1, 1′-({5-Chloro-1-[5-(methylsulfonyl)pyridin-3-yl]-1H-benzimidazol-2-yl}methyl)spiro[cyclopropane-1,3′-pyrrolo[2,3-c]pyridin]-2′(1H)-one] | 5 nM
COc1ccc(-n2c(CN3C(=O)C4(CC4)c4ccncc43)nc3cc(Cl)ccc32)cn1 [Example 4-9, 1′-{[5-Chloro-1-(6-methoxypyridin-3-yl)-1H-benzimidazol-2-yl]methyl}spiro[cyclopropane-1,3′-pyrrolo[2,3-c]pyridin]-2′(1′H)-one] | 11 nM
Cc1cc(-n2c(CN3C(=O)C4(CC4)c4ccncc43)nc3cc(Cl)ccc32)cc(S(C)(=O)=O)c1 [Example 5-3, 1′-({5-Chloro-1-[3-methyl-5-(methylsulfonyl)phenyl]-1H-benzimidazol-2-yl}methyl)spiro[cyclopropane-1,3′-pyrrolo[2,3-c]pyridin]-2′(1′H)-one] | 19 nM
NC(=O)c1ccc(-n2c(CN3C(=O)C4(CC4)c4ccncc43)nc3cc(Cl)ccc32)cc1 [Example 7, 4-{5-Chloro-2-[(2′-oxospiro[cyclopropane-1,3′-pyrrolo[2,3-c]pyridin]-1′(2′H)-yl)methyl]-1H-benzimidazol-1-yl}benzamide] | 13 nM
CS(=O)(=O)c1ccc(-c2c(CN3C(=O)C4(CC4)c4ccncc43)[nH]c3cc(Cl)ccc23)cc1 [Example 9-1, 1′-({6-Chloro-3-[4-(methylsulfonyl)phenyl]-1H-indol-2-yl}methyl)spiro[cyclopropane-1,3′-pyrrolo[2,3-c]pyridin]-2′(1′H)-one] | 25 nM
CCOC(=O)c1ccc(-n2c(CN3C(=O)C4(CC4)c4ccncc43)nc3cc(Cl)ccc32)cc1 [Example 4-2, Ethyl 4-{5-chloro-2-[(2′-oxospiro[cyclopropane-1,3′-pyrrolo[2,3-c]pyridin]-1′(2′H)-yl)methyl]-1H-benzimidazol-1-yl}benzoate] | 6 nM
CS(=O)(=O)c1cccc(-n2c(CN3C(=O)C4(CC4)c4ccncc43)nc3cc(Cl)ccc32)c1 [Example 4-4, 1′-({5-chloro-1-[3-(methylsulfonyl)phenyl]-1H-benzimidazol-2-yl}methyl)spiro[cyclopropane-1,3′-pyrrolo[2,3-c]pyridin]-2′(1′H)-one] | 8 nM
N#Cc1cccc(-n2c(CN3C(=O)C4(CC4)c4ccncc43)nc3cc(Cl)ccc32)c1 [Example 4-7, 3-{5-Chloro-2-[(2′-oxospiro[cyclopropane-1,3′-pyrrolo[2,3-c]pyridin]-1′(2′H)-yl)methyl]-1H-benzimidazol-1-yl}benzonitrile] | 7 nM
O=C1N(Cc2nc3cc(Cl)ccc3n2-c2ccc(O)nc2)c2cnccc2C12CC2 [Example 8, 1′-{[5-Chloro-1-(6-hydroxypyridin-3-yl)-1H-benzimidazol-2-yl]methyl}spiro[cyclopropane-1,3′-pyrrolo[2,3-c]pyridin]-2′(1′H)-one] | 18 nM
O=C(O)c1ccc(-n2c(CN3C(=O)C4(CC4)c4ccc(F)cc43)nc3cc(Cl)ccc32)cc1 [Example 6-3, 4-{5-Chloro-2-[(6′-fluoro-2′-oxospiro[cyclopropane-1,3′-indol]-1′(2′H)-yl)methyl]-1H-benzimidazol-1-yl}benzoic acid] | 50 nM
CS(=O)(=O)c1ccc(-n2c(CN3C(=O)C4(CC4)c4ccncc43)nc3cc(Cl)ccc32)cn1 [Example 4-3, 1′-({5-Chloro-1-[6-(methylsulfonyl)pyridin-3-yl]-1H-benzimidazol-2-yl}methyl)spiro[cyclopropane-1,3′-pyrrolo[2,3-c]pyridin]-2′(1′H)-one] | 4 nM
CCOC(=O)Cc1ccc(-n2c(CN3C(=O)C4(CC4)c4ccncc43)nc3cc(Cl)ccc32)cc1 [Example 3, Ethyl(4-{5-chloro-2-[(2′-oxospiro[cyclopropane-1,3′-pyrrolo[2,3-c]pyridin]-1′(2′H)-yl)methyl]-1H-benzimidazol-1-yl}phenyl)acetate] | 14 nM
O=C1N(Cc2nc3cc(Cl)ccc3n2-c2ccccc2)c2cnccc2C12CC2 [Example 4-1, 1′-[(5-Chloro-1-phenyl-1H-benzimidazol-2-yl)methyl]spiro[cyclopropane-1,3′-pyrrolo[2,3-c]pyridin]-2′(1′H)-one] | 17 nM
CC(=O)c1cccc(-n2c(CN3C(=O)C4(CC4)c4ccncc43)nc3cc(Cl)ccc32)c1 [Example 4-8, 1′-{[1-(3-Acetylphenyl)-5-chloro-1H-benzimidazol-2-yl]methyl}spiro[cyclopropane-1,3′-pyrrolo[2,3-c]pyridin]-2′(1′H)-one] | 19 nM
CS(=O)(=O)c1cccc(-n2c(CN3C(=O)C4(CC4)c4ccncc43)nc3cc(Cl)ccc32)n1 [Example 5-2, 1′-({5-Chloro-1-[6-(methylsulfonyl)pyridin-2-yl]-1H-benzimidazol-2-yl}methyl)spiro[cyclopropane-1,3′-pyrrolo[2,3-c]pyridin]-2′(1′H)-one] | 5 nM
O=C(O)c1ccc(-n2c(CN3C(=O)C4(CC4)c4ccncc43)nc3cc(Cl)ccc32)cc1 [Example 6-1, 4-{5-Chloro-2-[(2′-oxospiro[cyclopropane-1,3′-pyrrolo[2,3-c]pyridin]-1′(2′H)-yl)methyl]-1H-benzimidazol-1-yl}benzoic acid] | 6 nM
CS(=O)(=O)c1cccc(-c2c(CN3C(=O)C4(CC4)c4ccncc43)[nH]c3cc(Cl)ccc23)c1 [Example 9-2, 1′-({6-Chloro-3-[3-(methylsulfonyl)phenyl]-1H-indol-2-yl}methyl)spiro[cyclopropane-1,3′-pyrrolo[2,3-c]pyridin]-2′(1′H)-one] | 29 nM
CS(=O)(=O)c1ccc(-n2c(CN3C(=O)C4(CC4)c4ccncc43)nc3cc(Cl)ccc32)cc1 [Example 4-5, 1′-({5-Chloro-1-[4-(methylsulfonyl)phenyl]-1H-benzimidazol-2-yl}methyl)spiro[cyclopropane-1,3′-pyrrolo[2,3-c]pyridin]-2′(1′H)-one] | 5 nM
CCS(=O)(=O)c1ccnc(-n2c(CN3C(=O)C4(CC4)c4ccncc43)nc3cc(Cl)ccc32)c1 [Example 2-2, 1′-({5-Chloro-1-[4-(ethylsulfonyl)pyridin-2-yl]-1H-benzimidazol-2-yl}methyl)spiro[cyclopropane-1,3′-pyrrolo[2,3-c]pyridin]-2′(1′H)-one] | 21 nM
